Laboratory results published in the NIST ThermoML archive (doi:10.1016/j.fluid.2017.12.031).
Where “and” joins values, the source holds several entries; their conditions need not be identical. Equal entries are not always repeated.

Experiments:
[1] = 313.15 K; Liquid; Closed cell (Static) method
[2] = excess molar enthalpy (molar enthalpy of mixing); xn = mol fraction of the nth substance listed; details: 101 kPa, Liquid, Flow calorimetry

Cc1ccc(C)c(C)c1 [1,2,4-trimethylbenzene]
Details | vapor or sublimation pressure [kPa]
[1] | 0.73

Cc1ccc(C)c(C)c1 [1,2,4-trimethylbenzene] + CCCC(C)O
excess molar enthalpy [kcal/mol], [2]
Details | 298.15 K | 313.15 K
x2 = 0 | 0 | 0
x2 = 0.0499 | 0.144 | 0.149
x2 = 0.0987 | – | 0.237
x2 = 0.1012 | 0.218 | –
x2 = 0.149 | 0.264 | 0.295
x2 = 0.1982 | – | 0.334
x2 = 0.2006 | 0.297 | –
x2 = 0.2487 | 0.322 | –
x2 = 0.2509 | – | 0.361
x2 = 0.298 | 0.338 | –
x2 = 0.3002 | – | 0.382
x2 = 0.3485 | 0.35 | –
x2 = 0.3507 | – | 0.392
x2 = 0.3979 | 0.358 | 0.399
x2 = 0.4482 | 0.36 | –
x2 = 0.4504 | – | 0.4
x2 = 0.4996 | 0.356 | 0.397
x2 = 0.5476 | – | 0.386
x2 = 0.5496 | 0.349 | –
x2 = 0.6005 | – | 0.369
x2 = 0.6006 | 0.334 | –
x2 = 0.6482 | – | 0.346
x2 = 0.6502 | 0.313 | –
x2 = 0.6987 | – | 0.318
x2 = 0.6988 | 0.289 | –
x2 = 0.7479 | – | 0.285
x2 = 0.748 | 0.259 | –
x2 = 0.7978 | – | 0.243
x2 = 0.7979 | 0.22 | –
x2 = 0.8481 | – | 0.194
x2 = 0.8482 | 0.176 | –
x2 = 0.8989 | – | 0.138
x2 = 0.899 | 0.124 | –
x2 = 0.9501 | – | 0.0718
x2 = 0.9502 | 0.0647 | –

Cc1ccc(C)c(C)c1 [1,2,4-trimethylbenzene] + CCCCCO
excess molar enthalpy [kcal/mol], [2]
Details | 298.15 K | 313.15 K
x2 = 0 | 0 | 0
x2 = 0.0503 | 0.124 | 0.139
x2 = 0.0995 | 0.175 | 0.207
x2 = 0.15 | 0.204 | 0.248
x2 = 0.1995 | 0.22 | 0.273
x2 = 0.2501 | 0.233 | –
x2 = 0.2502 | – | 0.289
x2 = 0.2997 | 0.241 | 0.297
x2 = 0.3481 | 0.243 | 0.3
x2 = 0.3998 | 0.24 | 0.3
x2 = 0.4481 | 0.234 | –
x2 = 0.4482 | – | 0.295
x2 = 0.4995 | 0.223 | 0.283
x2 = 0.5495 | 0.21 | –
x2 = 0.5496 | – | 0.268
x2 = 0.5985 | 0.194 | –
x2 = 0.5986 | – | 0.25
x2 = 0.6482 | 0.175 | 0.227
x2 = 0.6985 | 0.153 | –
x2 = 0.6986 | – | 0.203
x2 = 0.7494 | 0.129 | –
x2 = 0.7495 | – | 0.173
x2 = 0.7991 | 0.104 | 0.142
x2 = 0.8492 | 0.0777 | 0.108
x2 = 0.8997 | 0.0527 | 0.0729
x2 = 0.9505 | 0.0253 | 0.0354

C=CCCCC [hex-1-ene]
Details | vapor or sublimation pressure
[1] | 44.91 kPa and 44.95 kPa

C=CCCCC [hex-1-ene] + CCCC(C)O
[2], x2 = 0
Details | excess molar enthalpy [kcal/mol]
298.15 K | 0
313.15 K | 0
